Measured values from patent US7605185B2, “Treatment of arrhythmia by retinoids affecting signal transduction” (priority 1999, dated 2009).

Tests used:
[1] = test system: mouse heart (cardiomyocytes); test: Perinatal mouse heart model: cardiac growth, heart size and weight after retinoid gavage; assay type: in vivo
Protocol: (§1) 1 week old litters of C57/b mice (around 3 g body weight) were divided into groups of five to 10 animals, to be treated with all-trans-RA in carrier, 9cis-RA in carrier, or carrier (canola oil, Sigma). Every treatment group was assigned to one nursing mother. Groups larger than 10 pups were avoided, to exclude limited feeding frequency as experimental variable. A retinoid preparation for gavage was formulated such that every animal received a maximum of 150 μl volume containing 40 mg/kg all-trans RA in carrier, 12 mg/kg or 20 mg/kg 9cis-RA in carrier, or carrier alone. DMSO or ethanol content was limited to 0.1%. Pups were gavage-fed from a tuberculin syringe connected with a bent vein catheter. The strong suckling reflex facilitated delivery of the viscous and odorous formulation. Depending on the territorial protection behaviour of the mother, pups were briefly rolled in cage stray after gavage to prevent triggering maternal infanticide behaviour through unusual smell of the pups. For two hours after gavage, pups were carefully monitored to prevent maternal infanticide. Every 24 h, the weight was recorded.
(§2) For uptake kinetics, pairs of treated pups were sacrificed by decapitation after 1 h, 2 h, 4 h, 8 h, 16 h, 24 h, 36 h and 72 h. Organs were removed under the dissection microscope and frozen in liquid nitrogen. Hearts were dissected under the surgical dissection microscope; tissues were divided into atria, ventricles, and enriched in conductance system (a tissue preparation containing the ventricular septa with the Purkinje fibers and the atrial region between the aorta and the pulmonal artery (outflow tract) with the sinus node). For immunohistology, pups were sacrificed after 72 h, hearts were rinsed in PBS, weighed and fixed in 4% para-formaldehyde in PBS before embedding in OCT for standard cryostat procedures. If pups were on the brink of death (typically between 36 and 72 h after gavage), they were sacrificed, and hearts were collected for confocal microscopy or HPLC.

[2] = test system: cardiac conductance cells and cardiac neurons; test: TUNEL apoptosis staining with connexin37/40 or neuron-specific enolase counterstain, confocal microscopy; assay type: in vivo, mouse
Protocol: as §1, §2
For confocal microscopy, cryostat sections were first stained for apoptotic DNA strand breaks according to the TUNEL protocol (using the commercially available Apoptag™ kit, Oncor Inc., Gaithersburg Md.) and counterstained with rabbit anti-connexin37 antibody or rabbit anti-connexin40 antibody for conductance cells, or with rabbit anti-myosin antibody for cardiac myocytes. Immunodetection of connexin isoforms 40 and 43 has been established as a useful method to detect cells of the cardiac conductance system in rodents (Gourdie et al., The spatial distribution and relative abundance of gap-junctional connexin40 and connexin43 correlate to functional properties of components of the cardiac atrioventricular conducting system, J. Cell Science 105 (Pt 4) 985-991, 1993); because of the relatively weak signal of connexin40, the connexin isoform 37 can be used as equivalent marker for the conductance system in the mouse model (Willecke K et al, 1991; Willecke K, personal communication). The combination of rabbit anti-Neuron-specific enolase with propidium iodide followed published procedures (Current Protocols in Molecular Biology) and was used to identify cardiac neurons with advanced apoptotic condensation of nuclei. Procedures of immunohistology and image analysis are further described in detail in Graupner, WO 00/53236.

cardiac myocytes = test: TUNEL apoptosis staining with anti-myosin counterstain, confocal microscopy; assay type: in vivo, mouse
Text: as §1, with “A retinoid preparation for gavage was formulated such that every animal received a maximum of 150 μl volume containing 40 mg/kg all-trans RA in carrier, 12 mg/kg or 20 mg/kg 9cis-RA in carrier, or carrier alone.” left out
(§3) For uptake kinetics, pairs of treated pups were sacrificed by decapitation after 1 h, 2 h, 4 h, 8 h, 16 h, 24 h, 36 h and 72 h. Organs were removed under the dissection microscope and frozen in liquid nitrogen. […]

[3] = test system: mitochondrial Mn-dependent superoxide dismutase Mn-SOD; test: Quantitative confocal immunohistology of Mn-SOD protein signal in cardiac outflow tract; assay type: in vivo, mouse; settings: 20 mg/kg; for upregulation of MnSOD protein signal: connexin-positive cells
Protocol: as §1, with “recorded. […]” for “recorded.”
The mechanism of apoptosis was investigated using commercially available primary antibodies of highest purity, at dilutions recommended by the manufacturer, against IGF-1, IGF-II, the entire set of IGFbinding proteins (IGFBP1-5), IGF-R, mitochondrial Mn-dependent superoxide dismutase Mn-SOD, and cytoplasmic Cu/Zn-dependent superoxide dismutase Cu/Zn-SOD. […] Confocal images were captured and processed for quantitative analysis by Zeiss LSM-300 software. Briefly, the pixel intensities per unit area amounting to channel background were determined for each antibody/seconday antibody combination and subtracted from the experimental pixel intensities. […] At least five independent regions of similar size were analyzed per tissue type and retinoid treatment condition. Averaged pixel intensities per unit area upon 9cis retinoid induction were expressed as multiples of averaged pixel intensities per unit area in the absence of 9cis retinoid induction (fold induction +/−s.e.m.)

[4] = test system: endogenous peroxidase activity; test: Gas release from heart tissue sections on addition of H2O2; assay type: in vivo, mouse; settings: 20 mg/kg
Protocol: as §1, with “The strong suckling reflex facilitated delivery of the viscous and odorous formulation. Depending on the territorial protection behaviour of the mother, pups were briefly rolled in cage stray after gavage to prevent triggering maternal infanticide behaviour through unusual smell of the pups.” left out
Another observation with significant ramifications is the substantial activation of pathways metabolizing reactive oxygen species in cardiac tissue after administration of 20 mg/kg of 9cis-RA. […] Second, very high upregulation of MnSOD protein signal was detected in connexin-positive cells of the cardiac outflow tract; the signal of 3.4 fold upregulation localizes to the region of the atrium surrounding the sino-atrial node; the signal of 11 fold upregulation localizes most likely to the area of the sino-atrial node proper. […]

IGFBP5 = test: Confocal immunohistology of IGF pathway proteins in cardiac cell types; assay type: in vivo, mouse; settings: after treatment, dose not stated
Protocol: as §1, with “The strong suckling reflex facilitated delivery of the viscous and odorous formulation. Depending on the territorial protection behaviour of the mother, pups were briefly rolled in cage stray after gavage to prevent triggering maternal infanticide behaviour through unusual smell of the pups.” left out, “recorded. […]” for “recorded.”
The mechanism of apoptosis was investigated using commercially available primary antibodies of highest purity, at dilutions recommended by the manufacturer, against IGF-1, IGF-II, the entire set of IGFbinding proteins (IGFBP1-5), IGF-R, mitochondrial Mn-dependent superoxide dismutase Mn-SOD, and cytoplasmic Cu/Zn-dependent superoxide dismutase Cu/Zn-SOD. […] Confocal images were captured and processed for quantitative analysis by Zeiss LSM-300 software. […] At least five independent regions of similar size were analyzed per tissue type and retinoid treatment condition. […]

[5] = Death of mouse pups after gavage; assay type: in vivo; settings: nonmutagenic amounts
Protocol: as §1, §3

[6] = higher amounts, 20 mg/kg and higher, mice
[7] = in vivo administration to mice, dose not stated

CC1=C(/C=C/C(C)=C\C=C\C(C)=C\C(=O)O)C(C)(C)CCC1 [9cis-RA, 9-cis retinoic acid]
effect on growth (growth factor-dependent pathway) ([1]; 10 mg/kg): growth-inhibitory effect
size of the average myocardial myocyte ([1]; 20 mg/kg or less than 10 mg/kg): reduced
myocardial growth stunting ([1]; around 10 mg/kg): approached complete growth arrest
growth of cardiomyocytes [1, 6]: reduced growth of cardiomyocytes
growth of cardiomyocytes [1, 7]: reduced growth of cardiomyocytes
cell growth in heart ([1]; moderate amounts, 3-10 mg/kg, mice): reduced growth of cardiomyocytes, cardiac neurons, and cells of the cardiac conductance system
apoptosis in cardiac conductance cells of perinatal mouse heart (FIG. 3, confocal micrographs) ([2]; 20 mg/kg): colocalization of apoptosis in cardiac conductance cells
correlation between apoptosis and conductance cell phenotype ([2]; 20 mg/kg): strong correlation
effect on apoptosis ([2]; 40 mg/kg): pro-apoptotic effect
apoptosis of cardiac neurons and cardiac pacemaker cells [2, 6]: apoptosis of cardiac neurons and cardiac pacemaker cells
apoptosis in cardiac neurons and cardiac conductance system [2, 7]: apoptosis in cardiac neurons and cells of the cardiac conductance system
correlation between apoptosis and conductance cell type ([2]; less than 10 mg/kg): no correlation
colocalization of TUNEL signal in cardiac myocytes (cardiac myocytes; 20 mg/kg): No colocalization of TUNEL signal
colocalization of TUNEL signal in cardiac myocytes (cardiac myocytes; less than 10 mg/kg): No colocalization of TUNEL signal
immunoreactive Mn-SOD in mitochondria of cells in the cardiac outflow tract (FIG. 4) ([3]; versus carrier): upregulation
upregulation of MnSOD protein signal ([3]; most likely area of the sino-atrial node proper): 11 fold
upregulation of MnSOD protein signal ([3]; region of the atrium surrounding the sino-atrial node): 3.4 fold
gas bubbles released from myocardial cells on H2O2 addition (endogenous peroxidase activity) [4]: remarkable amounts of gas bubbles were released
IGFBP5 expression in cardiac myocytes (IGFBP5): moderately upregulated
death of mouse pups after gavage [5]: sudden death of mouse pups

CC1=C(/C=C/C(C)=C/C=C/C(C)=C/C(=O)O)C(C)(C)CCC1 [all-trans-RA, all-trans retinoic acid]
myocardial growth reduction ([1]; 40 mg/kg): less than 30%
correlation between apoptosis and conductance cell type ([2]; 40 mg/kg): no correlation
